Measurements as given in publication PMC4979872, “Synthesis, fluorescence properties and the promising cytotoxicity of pyrene–derived aminophosphonates” (Beilstein Journal of Organic Chemistry, 2016).

Tests used:
[1] = test system: HCT116 human colorectal carcinoma cell line; assay: MTT cytotoxicity assay on HCT116 cells; format: cell-based; conditions: 24 h incubation, 5 to 600 µM, mean ± SEM of six experiments
Description: (§1) The cytotoxic effects of dimethyl aminophosphonates 3Aa, 3Ab, 3Ac, 3Ad, 3Ai and dimethyl [hydroxy(pyren-1-yl)methyl]phosphonate (5A) were investigated with two human colorectal carcinoma cell lines: HT29 and HCT116 and also on the normal human lymphocytes. For this a standard MTT (3-(4,5-dimethylthiazol-2-yl)-2,5-diphenyltetrazolium bromide) test was used and results presented as IC50 values (i.e., the concentration of the compound that inhibits 50% growth). The activity of the tested compounds was studied in the concentration range from 5 to 600 µM. […]
(§2) 2.1. Materials and methods
(§3) MTT assay (3-(4,5-dimethylthiazol-2-yl)-2,5-diphenyltetrazolium bromide) facilitates the determination of the level of cell survival after the exposure of cells to potentially toxic substances. The cytotoxicity level of studied compounds was evaluated by determining the dose or concentration that induces a standard biological response. The assessment of the cytotoxic activity of the tested compounds was carried out based on IC50 values – the concentration of the compound which causes inhibition of cell proliferation by 50% as compared to the negative control. To determine the above concentration, was created graphs of cell viability expressed in percentages, depending on the concentrations of studied […]
(§4) MTT (3(4,5-dimethylthiazol-2-yl)-2,5-diphenyltetrazolium bromide), lauryl sulfate (SLS), N,N-dimethylformamide (DMF), dimethyl sulfoxide (DMSO), penicillin-streptomycin solution stabilized, MEM non-essential amino acids solution, Histopaque 1077, and buffered saline (PBS) were purchased from Sigma Chemical Co. Foetal bovine serum (FBS), phytohemagglutinin (PHA), RPMI 1640 medium and Trypsin-EDTA were supplied by […]
(§5) All other chemicals (chemical reagents, substrates, and solvents) were of the highest commercial grade available and were purchased from CytoGen and Sigma–Aldrich. […]
(§6) The human colorectal carcinoma cell line (HCT116) and the human colorectal adenocarcinoma cell line (HT29) were obtained from the American Type Culture Collection (ATCC, Rockville, USA). The HCT116 cells were cultured in RPMI 1640 supplemented with FBS (10%) and antibiotics (1%): penicillin and streptomycin. The HT29 cells were cultured in RPMI 1640 medium supplemented with FBS (10%), antibiotics (1%): penicillin and streptomycin, and MEM non-essential amino acids solution (1%). The lymphocytes, HCT116 and HT29 cells were cultured at 37 °C in a humidified atmosphere of 95% air and 5% CO2.
(§7) A MTT assay was used to assess cell survival after treatment with studied compounds. The MTT assay is a quantitative colorimetric method to determine cell proliferation after treatment with the tested compounds. It is widely used to estimate the cytotoxic effect of chemicals on different types of cells. MTT (3(4,5-dimethyl-2-thiazolyl)-2,5-diphenyl-2H-tetrazolium bromide) is a water-soluble tetrazolium salt, which is converted into an insoluble purple formazan by cleavage of the tertazolium ring by succinate dehydrogenase within the mitochondria. The formazan product is impermeable to the cell membranes and therefore it accumulates in living cells. The purple crystals were extracted into a solution for homogeneous staining and the absorbance was read on a spectrophotometer at 595 nm. The percent reduction of MTT was compared to controls (cells not exposed to tested compounds), which represented 100% MTT reduction. The assay was optimized for the cell lines and chemical compounds used in the experiments.
(§8) The cancer cells and human lymphocytes were grown for 24 h on 96-well plates at a density of 6–8 × 10^3 cells/well and 8 × 10^5 cells/well, respectively. Then the cells were treated with the tested compounds for 24 h incubation periods in a volume of 50 μl per well for the lymphocytes and 100 μl per well for the HCT116, HT29 cells. Subsequently, a fresh MTT solution (lymphocytes, HCT116 and HT29: 20 μl, 5 mg/ml in sterile PBS) was added to each […]
(§9) well for the next 4 h. […]

[2] = test system: normal human lymphocytes; assay: MTT cytotoxicity assay on normal human lymphocytes; format: cell-based; conditions: 24 h incubation, 5 to 600 µM, mean ± SEM of six experiments
Description: as §1, §2, §3, §4
All other chemicals (chemical reagents, substrates, and solvents) were of the highest commercial grade available and were purchased from CytoGen and Sigma–Aldrich.
Lymphocytes were isolated from the peripheral blood of healthy, non-smoking donors of both sexes by centrifugation in a density gradient of Histopaque 1077 (15 min., 300 × g) (blood was obtained from the Blood Donation Center in Lodz, Poland). The cells were suspended in the culture medium containing RPMI 1640, inactivated FBS (15%), penicillin and streptomycin (1%) and PHA (1%). […]
The lymphocytes, HCT116 […]
and HT29 cells were cultured at 37 °C in a humidified atmosphere of 95% air and 5% CO2.
as §7
as §8, with “each well for the next 4 h. Purple crystals forming in the cancer cells after the reduction of MTT were dissolved by DMSO (100 μl/well). In the case of lymphocytes this was achieved by” for “each”

[3] = test system: HT29 human colorectal adenocarcinoma cell line; assay: MTT cytotoxicity assay on HT29 cells; format: cell-based; conditions: 24 h incubation, 5 to 600 µM, mean ± SEM of six experiments
Description: as §1, §2, §3, §4, §5, §6, §7, §8, §9

Row | SMILES | IC50 ([1]; Homo sapiens, HCT-116, 24 h) [µM] | IC50 ([2]; Homo sapiens, Lymphocyte, 24 h) [µM] | IC50 ([3]; Homo sapiens, HT-29, 24 h) [µM] | melting point [°C] | IC50 [1] [µM] | IC50 [2] [µM] | IC50 [3] [µM]
1 | COP(=O)(OC)C(Nc1ccc(C)cc1)c1ccc2ccc3cccc4ccc1c2c34 (centres unmarked) [Compound 3Ac, dimethyl N-(4-methylphenyl)amino(pyren-1-yl)methylphosphonate] | 15.9 | 17.5 | 15.8 |  |  |  | 
2 | COP(=O)(OC)C(Nc1cccc(C)c1)c1ccc2ccc3cccc4ccc1c2c34 (centres unmarked) [Compound 3Ai, dimethyl N-(m-methylphenyl)amino(pyren-1-yl)methylphosphonate] | 20.2 | 75.8 | 57.5 | 209 to 210 |  |  | 
3 | COP(=O)(OC)C(NCc1ccccc1)c1ccc2ccc3cccc4ccc1c2c34 (centres unmarked) [Compound 3Aa] | 29 | 89.2 | 29.2 |  |  |  | 
4 | O=P(O)(O)C(NCc1ccccc1)c1ccc2ccc3cccc4ccc1c2c34 (centres unmarked) |  |  |  | 235 to 236 |  |  | 
5 | COP(=O)(OC)C(O)c1ccc2ccc3cccc4ccc1c2c34 (centres unmarked) [Compound 5A, dimethyl hydroxy(pyren-1-yl)methylphosphonate] | 40.4 | 136 | 25.8 |  |  |  | 
6 | O=P(OCc1ccccc1)(OCc1ccccc1)C(NCc1ccccc1)c1ccc2ccc3cccc4ccc1c2c34 (centres unmarked) |  |  |  | 100 to 101 |  |  | 
7 | COc1ccc(NC(c2ccc3ccc4cccc5ccc2c3c45)P(=O)(OC)OC)cc1 (centres unmarked) [Compound 3Ad, dimethyl N-(4-methoxyphenyl)amino(pyren-1-yl)methylphosphonate] | ~20 | ~230 | ~20 |  | 20.8 | 231 | 24.2
8 | COP(=O)(OC)C(Nc1ccccc1)c1ccc2ccc3cccc4ccc1c2c34 (centres unmarked) [Compound 3Ab] | 70.8 | 334 | 106 | 203 to 204 |  |  | 
9 | Cc1ccc(NC(c2ccc3ccc4cccc5ccc2c3c45)P(=O)(O)O)cc1 (centres unmarked) [Compound 4c] | ~15 | ~17 | ~15 | 210 to 211 |  |  | 
